Experiments:
Assay type in all cases: cell-based
[1] = system: Pseudomonas clinical isolate B184; assay: Comparative lethality in agar dilution test, isolate B184
Procedure: (§1) 859A2, carbenicillin, and gentamicin were compared in agar dilution, surface-inoculated assays at the minimum bactericidal concentration (MBC), and at 1/2 and 1/4 of the MBC, vs four clinical isolates of Pseudomonas.
(§2) Clinical isolates were supplied on nutrient agar-yeast extract slants. Strains B145 and B184 were reported as non-lactamase-containing strains whereas strains B126 and B189 contained lactamase.
(§3) A loopful of cells of each culture was transferred to 10 ml nutrient broth-yeast (NBY) extract and incubated for 16 hours at 37° C. on the shaker. The inocula were adjusted to O.D.=0.22 at 660 nm with NBY and further diluted with NBY to 1:250,000. One tenth (0.1) ml of the diluted cell suspension was added to plates containing 10 ml of Brain Heart Infusion Agar and spread uniformly over the surface with a sterile glass "hockey stick". Stock solutions of antibiotics at 10 mg/ml were added to 45° C. agar in appropriate amounts. […] After overnight incubation of plates at 37° C., a visual count of colonies was made.

[2] = system: Pseudomonas clinical isolate B189; assay: Comparative lethality in agar dilution test, isolate B189
Procedure: as §1, §2, §3

[3] = system: Pseudomonas clinical isolate B145; assay: Comparative lethality in agar dilution test, isolate B145
Procedure: as §1, §2, §3

[4] = system: Pseudomonas clinical isolate B126; assay: Comparative lethality in agar dilution test, isolate B126
Procedure: as §1, §2, §3

CC1(C)S[C@@H]2[C@H](NC(=O)C(C(=O)O)c3ccccc3)C(=O)N2[C@H]1C(=O)O (stereo partly drawn) [Carbenicillin, carbenicillin]
# of Colonies ([1]; 15.7 μg/ml): 75 | # of Colonies ([1]; 31.3 μg/ml): 100 | # of Colonies ([1]; 62.5 μg/ml): 0 | # of Colonies ([2]; 31.3 μg/ml): 333 | # of Colonies ([2]; 62.5 μg/ml): 263 | # of Colonies ([2]; 125 μg/ml): 0 | # of Colonies ([3]; 15.7 μg/ml): 368 | # of Colonies ([3]; 31.3 μg/ml): 335 | # of Colonies ([3]; 62.5 μg/ml): 0 | # of Colonies ([4]; 125 μg/ml): 68 | # of Colonies ([4]; 250 μg/ml): 28 | # of Colonies ([4]; 500 μg/ml): 0

gentamicin
# of Colonies ([1]; 0.39 μg/ml): 79 | # of Colonies ([1]; 0.79 μg/ml): 19 | # of Colonies ([1]; 1.56 μg/ml): 0 | # of Colonies ([2]; 0.78 μg/ml): 278 | # of Colonies ([2]; 1.56 μg/ml): 53 | # of Colonies ([2]; 3.12 μg/ml): 0 | # of Colonies ([3]; 12.5 μg/ml): 233 | # of Colonies ([3]; 25 μg/ml): 121 | # of Colonies ([3]; 50 μg/ml): 0 | # of Colonies ([4]; 0.39 μg/ml): 49 | # of Colonies ([4]; 0.78 μg/ml): 7 | # of Colonies ([4]; 1.56 μg/ml): 0
